Values of other authors as cited in US20090053319A1 (priority 2007, published 2009).

Settings: pure capsaicinoid; background statement

Compound: COc1cc(CNC(=O)CCCC/C=C/C(C)C)ccc1O [Capsaicin]
- pungency (Scoville scale): 15,000,000-16,000,000 Scoville units
